# Laboratory results taken from ChEMBL document CHEMBL3885881, “DrugMatrix”.
# Species: Rattus norvegicus
# Assay: DrugMatrix - Regimen: Daily Repeat
# Assay type: toxicity, organism-based, Sprague-Dawley
# Set-up: regimen Daily Repeat, gender Male, age 6-8 weeks
# Conditions: in vivo, iv, 0 mg/kg, dose level Control, vehicle 100 % SALINE; for ABSOLUTE BASOPHIL / ABSOLUTE EOSINOPHIL / ABSOLUTE LYMPHOCYTE / ABSOLUTE MONOCYTE / ABSOLUTE SEGMENTED NEUTROPHIL / BASOPHIL / EOSINOPHIL / ERYTHROCYTE COUNT / HEMATOCRIT / HEMOGLOBIN / LEUKOCYTE COUNT / LYMPHOCYTE / MEAN CORPUSCULAR HEMOGLOBIN / MEAN CORPUSCULAR HEMOGLOBIN CONCENTRATION / MEAN CORPUSCULAR VOLUME / MONOCYTE / NEUTROPHIL / NUCLEATED RED BLOOD CELLS / PLATELET COUNT: tissue Blood; for ALANINE AMINOTRANSFERASE / ALBUMIN / ALKALINE PHOSPHATASE / ASPARTATE AMINOTRANSFERASE / BLOOD UREA NITROGEN / CARBON DIOXIDE / CHLORIDE / CHOLESTEROL / CREATINE PHOSPHOKINASE / CREATININE / GLUCOSE / LACTATE DEHYDROGENASE / LIPASE / PHOSPHORUS / POTASSIUM / SODIUM / TOTAL BILIRUBIN / TOTAL PROTEIN / URIC ACID: tissue Plasma
smiles,measurement,setting,value
C[N+](C)(C)CCOC(=O)CCC(=O)OCC[N+](C)(C)C.[Cl-].[Cl-] [SUCCINYLCHOLINE CHLORIDE],ABSOLUTE BASOPHIL,"72 h, time 3 day",0 CELLS/uL
same,ABSOLUTE EOSINOPHIL,"72 h, time 3 day",193.5 CELLS/uL
same,ABSOLUTE LYMPHOCYTE,"72 h, time 3 day",15717.5 CELLS/uL
same,ABSOLUTE MONOCYTE,"72 h, time 3 day",389.33 CELLS/uL
same,ABSOLUTE SEGMENTED NEUTROPHIL,"72 h, time 3 day",1883 CELLS/uL
same,BASOPHIL,"72 h, time 3 day",0%
same,EOSINOPHIL,"72 h, time 3 day",1.17%
same,ERYTHROCYTE COUNT,"72 h, time 3 day",5.68 x10E6/uL
same,HEMATOCRIT,"72 h, time 3 day",35.83%
same,HEMOGLOBIN,"72 h, time 3 day",13.48 G/DL
same,LEUKOCYTE COUNT,"72 h, time 3 day",18.18 x10E3/uL
same,LYMPHOCYTE,"72 h, time 3 day",86.67%
same,MEAN CORPUSCULAR HEMOGLOBIN,"72 h, time 3 day",23.8 pg
same,MEAN CORPUSCULAR HEMOGLOBIN CONCENTRATION,"72 h, time 3 day",37.68 G/DL
same,MEAN CORPUSCULAR VOLUME,"72 h, time 3 day",63.27 fL
same,MONOCYTE,"72 h, time 3 day",2.17%
same,NEUTROPHIL,"72 h, time 3 day",10%
same,NUCLEATED RED BLOOD CELLS,"72 h, time 3 day",0 /100WBC
same,PLATELET COUNT,"72 h, time 3 day",1186.33 x10E3/uL
same,ALANINE AMINOTRANSFERASE,"72 h, time 3 day",68.5 u/L
same,ALBUMIN,"72 h, time 3 day",4.37 G/DL
same,ALKALINE PHOSPHATASE,"72 h, time 3 day",396.33 u/L
same,ASPARTATE AMINOTRANSFERASE,"72 h, time 3 day",92.5 u/L
same,BLOOD UREA NITROGEN,"72 h, time 3 day",18 mg/dL
same,CARBON DIOXIDE,"72 h, time 3 day",24.33 mmol/L
same,CHLORIDE,"72 h, time 3 day",102.4 MEQ/L
same,CHOLESTEROL,"72 h, time 3 day",67.17 mg/dL
same,CREATINE PHOSPHOKINASE,"72 h, time 3 day",378.67 u/L
same,CREATININE,"72 h, time 3 day",0.19 mg/dL
same,GLUCOSE,"72 h, time 3 day",178.33 mg/dL
same,LACTATE DEHYDROGENASE,"72 h, time 3 day",245.17 u/L
same,LIPASE,"72 h, time 3 day",9.2 u/L
same,PHOSPHORUS,"72 h, time 3 day",12.37 mg/dL
same,POTASSIUM,"72 h, time 3 day",6.48 MEQ/L
same,SODIUM,"72 h, time 3 day",143.28 MEQ/L
same,TOTAL BILIRUBIN,"72 h, time 3 day",0.23 mg/dL
same,TOTAL PROTEIN,"72 h, time 3 day",5.65 G/DL
same,URIC ACID,"72 h, time 3 day",1.6 mg/dL
same,ABSOLUTE BASOPHIL,"120 h, time 5 day",0 CELLS/uL
same,ABSOLUTE EOSINOPHIL,"120 h, time 5 day",27.5 CELLS/uL
same,ABSOLUTE LYMPHOCYTE,"120 h, time 5 day",13593.17 CELLS/uL
same,ABSOLUTE MONOCYTE,"120 h, time 5 day",576 CELLS/uL
same,ABSOLUTE SEGMENTED NEUTROPHIL,"120 h, time 5 day",1836.67 CELLS/uL
same,BASOPHIL,"120 h, time 5 day",0%
same,EOSINOPHIL,"120 h, time 5 day",0.17%
same,ERYTHROCYTE COUNT,"120 h, time 5 day",5.99 x10E6/uL
same,HEMATOCRIT,"120 h, time 5 day",37.42%
same,HEMOGLOBIN,"120 h, time 5 day",13.78 G/DL
same,LEUKOCYTE COUNT,"120 h, time 5 day",16.03 x10E3/uL
same,LYMPHOCYTE,"120 h, time 5 day",85.17%
same,MEAN CORPUSCULAR HEMOGLOBIN,"120 h, time 5 day",23.08 pg
same,MEAN CORPUSCULAR HEMOGLOBIN CONCENTRATION,"120 h, time 5 day",36.83 G/DL
same,MEAN CORPUSCULAR VOLUME,"120 h, time 5 day",62.6 fL
same,MONOCYTE,"120 h, time 5 day",3.5%
same,NEUTROPHIL,"120 h, time 5 day",11.17%
same,NUCLEATED RED BLOOD CELLS,"120 h, time 5 day",0 /100WBC
same,PLATELET COUNT,"120 h, time 5 day",1352.5 x10E3/uL
same,ALANINE AMINOTRANSFERASE,"120 h, time 5 day",49.83 u/L
same,ALBUMIN,"120 h, time 5 day",4.25 G/DL
same,ALKALINE PHOSPHATASE,"120 h, time 5 day",331.33 u/L
same,ASPARTATE AMINOTRANSFERASE,"120 h, time 5 day",86.17 u/L
same,BLOOD UREA NITROGEN,"120 h, time 5 day",19.5 mg/dL
same,CARBON DIOXIDE,"120 h, time 5 day",26.67 mmol/L
same,CHLORIDE,"120 h, time 5 day",103 MEQ/L
same,CHOLESTEROL,"120 h, time 5 day",67.5 mg/dL
same,CREATINE PHOSPHOKINASE,"120 h, time 5 day",346.17 u/L
same,CREATININE,"120 h, time 5 day",0.22 mg/dL
same,GLUCOSE,"120 h, time 5 day",170.67 mg/dL
same,LACTATE DEHYDROGENASE,"120 h, time 5 day",405.5 u/L
same,LIPASE,"120 h, time 5 day",8.83 u/L
same,PHOSPHORUS,"120 h, time 5 day",11.3 mg/dL
same,POTASSIUM,"120 h, time 5 day",6.06 MEQ/L
same,SODIUM,"120 h, time 5 day",143.4 MEQ/L
same,TOTAL BILIRUBIN,"120 h, time 5 day",0.17 mg/dL
same,TOTAL PROTEIN,"120 h, time 5 day",6.22 G/DL
same,URIC ACID,"120 h, time 5 day",1.63 mg/dL
